A short description of data set [1]: Aqueous solubility determination (Example 4). The class given is physicochemical. Here is the method:
Each salt is suspended in water and shaken for 24 h at 22° C. and 400 rpm. The resulting suspensions are filtered (0.2-μm filter). The obtained solids are analyzed by FT Raman. The pH of the filtrate is measured, and the concentration of the free base is determined by HPLC.

The subject of data set [2] is MMP13 expression in SW1353 cells. Kind of data set: IL-1/OSM driven MMP13 expression in SW1353 cells (MMP13 ELISA). The class given is cell-based. Conditions: Homo sapiens, IL-1β and OSM, 48 hr. Here is the method:
A 384 well format ELISA for measurement of MMP13 was developed. Various primary antibodies are tested, as well as various ELISA protocols. The following protocol is developed and validated to measure MMP13 levels in supernatant of cell cultures in 384 well plates.
Black maxisorb 384 well plates (Nunc 460518) are coated with 35 μL of a buffered solution containing 1.5 μg/mL anti-MMP13 antibody MAB511 (R&D systems). The antibody is diluted in carbonate-bicarbonate coating buffer (1.59 g Na2CO3 (Sigma S-7795) and 2.93 g NaHCO3 (Sigma S-5761) in 1 L MilliQ water, adjusted to pH 9.6). […] Substrate solution is prepared as follows: OmniMMP Fluorescent substrate (Biomol P-126) stock solution (2 mM in DMSO, stored at −20° C.) is diluted in 1× OmniMMP buffer (10× OmniMMP buffer: 500 mM Hepes (Sigma H4034), 100 mM CaCl2 (Sigma C5080), 0.5% Brij35 (Sigma 430 AG-6; adjusted to pH 7.0) to a final concentration of 0.01 mM. After an overnight incubation at 37° C., the active MMP13 in the sample has cleaved the substrate and released fluorescence. Readout is performed on the EnVision (Perkin Elmer) using 320 nm excitation/405 nm emission filters. […]
For orientation: ELISA stands for enzyme-linked immunosorbent assay.

The test system of data set [3] is Collagen-Induced Arthritis model. Kind of data set: CIA model. The class given is in vivo, mouse. Conditions: 3 or 30 mg/kg/d, daily for 14 days. Here is the method: Complete Freund Adjuvant/Collagen II (CFA/Coll II, bovine) is injected (1 mg/mL, 100 μL per animal) into the tail (intradermic) at the start of the experiment. Incomplete Freund Adjuvant /Collagen II (IFA/Coll II) is injected into the tail at the same level (1 mg/mL, 100 μL per animal) 21 days after CFA/Coll II injection. Animals are then randomized based on score and assigned to treatment groups assuring an equal distribution of score in the different groups. Treatment with either the test compound (1 mg/kg/d, 3 mg/kg/d or 30 mg/kg/d), positive control (Enbrel, 10 mg/kg/3× week, ip) or vehicle (Methyl Cellulose, 1% DMSO) starts at day 8 post IFA/Coll II-boost (i.e. […] of the experiment). Animals are dosed daily with the test compound, positive control or vehicle for 14 days. The animals are scored daily for clinical symptoms, scoring is reported for the individual paws. During the treatment period the body weight of the animals is monitored. Bone protection is analysed by x-ray imaging.

In brackets after ≈: the same amount, converted by molar mass.

Take `CC(C)N1C[C@@H]2C[C@H]1CN2c1ccc(Nc2ncc(-c3coc(C(N)=O)c3)n3ncnc23)cc1` [Compound 1, 4-{8-[4-((1S,4S)-5-Isopropyl-2,5-diaza-bicyclo[2.2.1]hept-2-yl)-phenylamino]-[1,2,4]triazolo[1,5-a]pyrazin-5-yl}-furan-2-carboxamide]: the “Filtrate pH” value in data set [1] (filtrate of the aqueous suspension after 24 h) came to 6.9. The solubility at 24 h in data set [1] (thermodynamic from solid, water, shaken 24 h at 22° C., free base concentration by HPLC, read-out: Measured solubility) came out at 70 µg/mL (≈ 153 µM). In data set [2], this compound gave an IC50 of 50 to 500 nM. Besides, the “efficacy in CIA model” value in data set [3] is on record as “efficacious”.

As usually defined, the solubility is how much of the substance goes into solution per volume. As usually defined, the IC50 is the midpoint of a concentration-inhibition curve. Low values mean higher potency, high ones lower potency.

These data come from US20110118269A1, “FUSED PYRAZINE COMPOUNDS AS THEIR SALTS, USEFUL FOR THE TREATMENT OF DEGENERATIVE AND INFLAMMATORY DISEASES” (priority 2009, published 2011).
